The values that follow come from US10173985B2, “Aminoindazole derivatives as sodium channel inhibitors” (ALMIRALL, S.A., priority 2015, dated 2019).

pIC50: −log10 of the molar value.

Data set [1] concerns the target voltage-gated sodium channel Nav1.7 (Homo sapiens (Human), UniProt Q15858). Nature of the data set: Nav1.7 screening assay, IonWorks Quattro automated patch-clamp electrophysiology. Type of data set: cell-based. The settings on record: stable CHO or HEK293 cell line expressing Nav1.7; percent block at peak 1 and peak 10; 5 minutes compound incubation; read-out: Nav 1.7 IC50. The method, then:
(§1) Assay Procedure Nav1.7 and Nav1.5 Screening Assay
(§2) Stable cell lines expressing the full-length protein of the voltage-gated sodium channels Nav1.7 or Nav1.5, with or without one beta-1, beta-2, beta-3, or beta-4 subunit, are created by transfected CHO cells or HEK293 cells, or any other suitable cell line, with a vector construct containing the complete open reading frame under a suitable promoter, as well known in the art.
(§3) Electrophysiological studies are performed with an IonWorks Quattro (Molecular Devices Corp.) automated patch-clamp electrophysiology platform as described by (Schroeder K et al. Journal of Biomolecular Screening 2003, 8 (1), 50-64). Buffers for the experiments have the following composition (mM): Internal solution; K-gluconate 100, KCl 40, MgCl2 3.2, HEPES 5, EGTA 3, pH 7.3. To this amphotericin B is added to final concentration of 0.1 mg/ml to generate access solution. External solution; Dulbecco's Phosphate buffered saline (D-PBS) NaCl 137.93, KCl 2.67, KH2PO4 1.47, Na2HPO4 8.06, CaCl2 0.90, MgCl2 0.49. Prior to the experiment the cells expressing the voltage-gated ion channel of interest are detached from the tissue culture flasks, centrifuged and resuspended in D-PBS. Compounds are prepared and serially diluted in DMSO and finally diluted 1:100 in D-PBS. Cells are exposed to compounds through the pipetting system integrated into the platform and the voltage-gated ion channel of interest is activated with specific voltage stimulation protocols. The following voltage stimulation protocol is used for testing compounds against the voltage-gated sodium channel Nav1.7; from a holding potential of −100 mV a train of eight 60 ms depolarising steps to −20 mV at a frequency of 14 Hz are employed followed by a further step to −20 mV for 2000 ms. After which the voltage is returned to −100 mV for 10 ms before another voltage step to −20 mV for 60 ms is applied. The following voltage stimulation protocol is used for testing compounds against the voltage-gated sodium channel Nav1.5; from a holding potential of −120 mV a train of twenty-six 120 ms depolarising steps to −20 mV at a frequency of 5 Hz are employed. Recordings are made before and after compound addition with the compound incubation time being 5 minutes.
(In general: The patch-clamp technique gives a direct electrical read-out from membranes.)

Data set [2] has as its target voltage-gated sodium channel Nav1.5 (Homo sapiens (Human), UniProt Q14524). Nature of the data set: Nav1.5 screening assay, IonWorks Quattro automated patch-clamp electrophysiology. Format: cell-based. The settings on record: stable CHO or HEK293 cell line expressing Nav1.5; percent block at peak 1 and 25; 5 minutes compound incubation; read-out: Nav 1.5 IC50. The method, then:
as §1, §2, §3

Chain of voltage-gated sodium channel Nav1.5 (Q14524 whole entry): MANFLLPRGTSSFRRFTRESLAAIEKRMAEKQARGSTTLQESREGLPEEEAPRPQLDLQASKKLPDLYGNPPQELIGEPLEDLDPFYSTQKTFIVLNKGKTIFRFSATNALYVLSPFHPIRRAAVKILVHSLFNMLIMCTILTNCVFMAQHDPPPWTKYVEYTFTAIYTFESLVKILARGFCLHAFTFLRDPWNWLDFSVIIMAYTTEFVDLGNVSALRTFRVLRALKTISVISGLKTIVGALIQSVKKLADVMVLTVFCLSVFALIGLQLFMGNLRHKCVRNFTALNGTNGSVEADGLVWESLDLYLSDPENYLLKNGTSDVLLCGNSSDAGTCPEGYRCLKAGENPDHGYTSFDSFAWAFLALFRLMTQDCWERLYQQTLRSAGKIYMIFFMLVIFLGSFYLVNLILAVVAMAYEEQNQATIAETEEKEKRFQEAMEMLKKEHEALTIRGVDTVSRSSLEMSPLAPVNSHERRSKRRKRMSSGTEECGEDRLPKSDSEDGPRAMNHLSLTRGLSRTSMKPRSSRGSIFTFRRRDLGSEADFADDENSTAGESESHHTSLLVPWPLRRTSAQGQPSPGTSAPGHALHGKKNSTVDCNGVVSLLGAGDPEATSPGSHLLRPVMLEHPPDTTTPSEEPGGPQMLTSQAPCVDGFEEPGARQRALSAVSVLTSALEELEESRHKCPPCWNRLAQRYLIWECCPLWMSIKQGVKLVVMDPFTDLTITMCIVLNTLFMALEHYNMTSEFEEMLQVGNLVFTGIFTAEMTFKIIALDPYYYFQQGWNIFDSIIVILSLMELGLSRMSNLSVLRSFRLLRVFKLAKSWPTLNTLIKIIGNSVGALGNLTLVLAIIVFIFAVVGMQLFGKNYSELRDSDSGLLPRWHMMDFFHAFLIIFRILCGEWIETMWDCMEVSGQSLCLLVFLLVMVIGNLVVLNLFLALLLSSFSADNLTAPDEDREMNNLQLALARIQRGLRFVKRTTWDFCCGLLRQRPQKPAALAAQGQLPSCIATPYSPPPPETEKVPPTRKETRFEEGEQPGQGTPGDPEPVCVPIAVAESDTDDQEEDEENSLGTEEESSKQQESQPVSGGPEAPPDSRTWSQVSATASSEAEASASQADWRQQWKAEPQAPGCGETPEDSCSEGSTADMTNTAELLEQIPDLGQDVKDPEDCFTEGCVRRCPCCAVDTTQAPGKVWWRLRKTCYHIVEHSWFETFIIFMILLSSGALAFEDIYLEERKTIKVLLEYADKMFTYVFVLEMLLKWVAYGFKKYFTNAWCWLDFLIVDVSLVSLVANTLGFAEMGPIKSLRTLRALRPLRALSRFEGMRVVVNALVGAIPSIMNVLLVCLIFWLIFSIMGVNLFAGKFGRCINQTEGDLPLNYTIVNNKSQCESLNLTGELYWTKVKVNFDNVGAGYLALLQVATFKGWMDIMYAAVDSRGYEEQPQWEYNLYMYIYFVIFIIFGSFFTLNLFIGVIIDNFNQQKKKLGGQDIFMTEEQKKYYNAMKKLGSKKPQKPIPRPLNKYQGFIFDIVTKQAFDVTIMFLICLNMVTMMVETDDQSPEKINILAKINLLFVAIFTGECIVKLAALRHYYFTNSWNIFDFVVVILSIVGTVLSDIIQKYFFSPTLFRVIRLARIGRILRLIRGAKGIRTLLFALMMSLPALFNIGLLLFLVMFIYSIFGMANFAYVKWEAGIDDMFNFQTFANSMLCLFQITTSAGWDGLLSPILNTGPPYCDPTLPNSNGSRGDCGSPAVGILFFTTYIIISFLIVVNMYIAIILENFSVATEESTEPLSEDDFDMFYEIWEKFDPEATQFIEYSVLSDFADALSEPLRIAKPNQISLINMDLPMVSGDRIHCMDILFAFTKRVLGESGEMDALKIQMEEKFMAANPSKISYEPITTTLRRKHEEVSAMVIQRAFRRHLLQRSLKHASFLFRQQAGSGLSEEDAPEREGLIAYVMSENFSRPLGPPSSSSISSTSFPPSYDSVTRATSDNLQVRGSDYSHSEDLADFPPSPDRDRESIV
Chain of voltage-gated sodium channel Nav1.7 (Q15858 whole entry): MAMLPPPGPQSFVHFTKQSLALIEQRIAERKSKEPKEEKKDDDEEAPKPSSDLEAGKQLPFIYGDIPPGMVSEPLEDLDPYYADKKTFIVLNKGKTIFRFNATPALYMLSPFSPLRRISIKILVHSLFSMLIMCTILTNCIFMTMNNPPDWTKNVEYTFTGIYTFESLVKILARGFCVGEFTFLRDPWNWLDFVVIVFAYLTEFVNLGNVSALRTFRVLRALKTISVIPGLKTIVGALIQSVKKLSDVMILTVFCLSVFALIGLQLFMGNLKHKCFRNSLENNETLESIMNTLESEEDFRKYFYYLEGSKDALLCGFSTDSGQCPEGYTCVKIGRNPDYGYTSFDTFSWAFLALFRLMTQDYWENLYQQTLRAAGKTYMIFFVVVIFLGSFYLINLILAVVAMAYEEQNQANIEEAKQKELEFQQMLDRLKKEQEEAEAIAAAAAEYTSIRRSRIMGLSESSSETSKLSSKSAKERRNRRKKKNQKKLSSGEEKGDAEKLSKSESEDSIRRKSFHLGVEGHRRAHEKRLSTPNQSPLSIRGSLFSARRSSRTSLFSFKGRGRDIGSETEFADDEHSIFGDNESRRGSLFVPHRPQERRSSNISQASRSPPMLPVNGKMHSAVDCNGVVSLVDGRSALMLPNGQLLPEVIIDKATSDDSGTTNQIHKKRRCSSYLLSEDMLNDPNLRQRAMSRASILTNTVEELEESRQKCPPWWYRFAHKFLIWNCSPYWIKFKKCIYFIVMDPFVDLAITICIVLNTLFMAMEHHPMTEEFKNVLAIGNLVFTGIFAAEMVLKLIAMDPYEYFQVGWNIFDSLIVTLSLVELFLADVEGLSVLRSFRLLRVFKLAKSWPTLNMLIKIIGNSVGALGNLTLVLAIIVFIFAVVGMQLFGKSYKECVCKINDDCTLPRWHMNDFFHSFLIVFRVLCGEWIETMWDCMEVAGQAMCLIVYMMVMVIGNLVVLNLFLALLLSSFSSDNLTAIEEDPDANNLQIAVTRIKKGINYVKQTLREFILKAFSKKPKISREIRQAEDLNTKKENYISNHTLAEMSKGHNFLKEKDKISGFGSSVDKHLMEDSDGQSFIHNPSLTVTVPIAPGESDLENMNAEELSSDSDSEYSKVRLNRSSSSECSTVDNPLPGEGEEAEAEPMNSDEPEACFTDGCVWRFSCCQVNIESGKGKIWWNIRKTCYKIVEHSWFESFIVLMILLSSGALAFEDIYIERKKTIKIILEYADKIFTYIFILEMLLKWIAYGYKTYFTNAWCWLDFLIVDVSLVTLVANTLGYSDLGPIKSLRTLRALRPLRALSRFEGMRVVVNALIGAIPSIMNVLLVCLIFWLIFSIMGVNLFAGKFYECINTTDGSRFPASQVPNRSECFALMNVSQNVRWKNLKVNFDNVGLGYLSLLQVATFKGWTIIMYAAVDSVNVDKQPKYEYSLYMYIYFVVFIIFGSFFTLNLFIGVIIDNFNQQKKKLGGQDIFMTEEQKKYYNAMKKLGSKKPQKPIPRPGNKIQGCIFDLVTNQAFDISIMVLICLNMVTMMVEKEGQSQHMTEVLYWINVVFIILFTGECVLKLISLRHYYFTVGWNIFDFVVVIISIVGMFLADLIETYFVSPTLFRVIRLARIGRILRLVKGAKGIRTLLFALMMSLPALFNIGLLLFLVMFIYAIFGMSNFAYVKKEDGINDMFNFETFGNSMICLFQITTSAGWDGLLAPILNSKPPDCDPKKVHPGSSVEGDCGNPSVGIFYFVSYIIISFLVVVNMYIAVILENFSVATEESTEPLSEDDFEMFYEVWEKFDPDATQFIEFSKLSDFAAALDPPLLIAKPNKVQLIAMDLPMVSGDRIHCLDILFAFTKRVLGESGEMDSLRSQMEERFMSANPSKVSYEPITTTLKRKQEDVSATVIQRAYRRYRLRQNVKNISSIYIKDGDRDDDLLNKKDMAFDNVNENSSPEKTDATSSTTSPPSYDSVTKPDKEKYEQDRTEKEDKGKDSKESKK

For orientation: pIC50 means the negative decadic logarithm of the IC50, by convention in mol/L. Consider “6-(2-(2,2,3,3,3-pentafluoropropoxy)phenyl)-1H-indazol-3-amine [Example 14]”, for which the pIC50 in data set [1] was 6.25; in data set [2], 5.10.

`COc1ccc(OCC(F)(F)C(F)(F)F)c(-c2ccc3c(N)nn(C)c3c2)c1` [Example 3, 6-(5-methoxy-2-(2,2,3,3,3-pentafluoropropoxy)phenyl)-1-methyl-1H-indazol-3-amine]: in data set [2], the pIC50 was less than 4.48.

Take `Cn1nc(N)c2ccc(-c3ccccc3OCC(F)(F)F)cc21` [Example 8, 1-methyl-6-(2-(2,2,2-trifluoroethoxy)phenyl)-1H-indazol-3-amine]: the pIC50 in data set [1] was 6.49; in data set [2], less than 4.48.

Regarding `Cn1nc(NCCO)c2ccc(-c3ccccc3OCC(F)(F)C(F)(F)F)cc21` [Example 12, 2-(1-methyl-6-(2-(2,2,3,3,3-pentafluoropropoxy)phenyl)-1H-indazol-3-ylamino)ethanol], the negative-log IC50 (pIC50) was 6.09 in data set [1] and less than 4.48 in data set [2].

Take `Cn1nc(N)c2ccc(-c3cccc(F)c3OCC(F)(F)C(F)(F)F)cc21` [Example 22, 6-(3-fluoro-2-(2,2,3,3,3-pentafluoropropoxy)phenyl)-1-methyl-1H-indazol-3-amine]: the negative-log IC50 (pIC50) is 7.00 in data set [1] and less than 4.48 in data set [2].

Turning to `Cn1nc(N)c2ccc(-c3c(F)cccc3OCC(F)(F)C(F)(F)F)cc21` [Example 24, 6-(2-fluoro-6-(2,2,3,3,3-pentafluoropropoxy)phenyl)-1-methyl-1H-indazol-3-amine], the pIC50 in data set [1] was 6.25; in data set [2], less than 4.48.

With `NC(=O)Cn1nc(N)c2ccc(-c3cccc(F)c3OCC(F)(F)C(F)(F)F)cc21` [Example 26, 2-(3-amino-6-(3-fluoro-2-(2,2,3,3,3-pentafluoropropoxy)phenyl)-1H-indazol-1-yl)acetamide], in data set [1], the pIC50 is 5.44.

For the compound `Cn1nc(NCCCO)c2ccc(-c3ccccc3OCC(F)(F)C(F)(F)F)cc21` [Example 27, 3-(1-methyl-6-(2-(2,2,3,3,3-pentafluoropropoxy)phenyl)-1H-indazol-3-ylamino)propan-1-ol], the results for the pIC50 in data set [1] and in data set [2] were 5.82 and 4.70, respectively.

Turning to `COc1cccc(-c2ccc3c(N)nn(C)c3c2)c1OCC(F)(F)F` [Example 40, 6-(3-methoxy-2-(2,2,2-trifluoroethoxy)phenyl)-1-methyl-1H-indazol-3-amine], the figures for the pIC50 in data set [1] and in data set [2] were 6.70 and less than 4.48, respectively.

For the compound `COc1cccc(-c2ccc3c(N)nn(C)c3c2)c1OCC(F)F` [Example 41, 6-(2-(2,2-difluoroethoxy)-3-methoxyphenyl)-1-methyl-1H-indazol-3-amine], the pIC50 in data set [2] is less than 4.48.

As for `Cn1nc(N)c2ccc(-c3cccc(F)c3OCC(F)F)cc21` [Example 42, 6-(2-(2,2-difluoroethoxy)-3-fluorophenyl)-1-methyl-1H-indazol-3-amine], the pIC50 was 6.54 in data set [1] and 4.64 in data set [2].

Regarding `CN1CCC(CNc2nn(C)c3cc(-c4cccc(F)c4OCC(F)(F)F)ccc23)CC1` [Example 44, 6-(3-fluoro-2-(2,2,2-trifluoroethoxy)phenyl)-1-methyl-N-((1-methylpiperidin-4-yl)methyl)-1H-indazol-3-amine], the negative-log IC50 (pIC50) is 5.73 in data set [1] and 5.35 in data set [2].

`Cn1nc(N)c2ccc(-c3cccnc3OCC(F)(F)F)cc21` [Example 47, 1-methyl-6-(2-(2,2,2-trifluoroethoxy)pyridin-3-yl)-1H-indazol-3-amine]: the pIC50 is 5.63 in data set [1] and less than 4.48 in data set [2].

On to `CNc1nn(C)c2cc(-c3cccc(F)c3OCC(F)F)ccc12` [Example 57, 6-(2-(2,2-difluoroethoxy)-3-fluorophenyl)-N,1-dimethyl-1H-indazol-3-amine], for which the pIC50 in data set [1] is 5.89; in data set [2], less than 4.48.

With `Cn1nc(N)c2ccc(-c3cccc(F)c3OC(F)F)cc21` [Example 58, 6-(2-(difluoromethoxy)-3-fluorophenyl)-1-methyl-1H-indazol-3-amine], the pIC50 is 6.07 in data set [1] and less than 4.48 in data set [2].

On to `Nc1nn(CCCO)c2cc(-c3ccccc3C(F)(F)F)ccc12` [Example 67, 3-(3-amino-6-(2-(trifluoromethyl)phenyl)-1H-indazol-1-yl)propan-1-ol], for which the values for the pIC50 in data set [1] and in data set [2] were 6.13 and 4.52, respectively.

Turning to `Nc1nn(CCCO)c2cc(-c3ccccc3OC(F)(F)F)ccc12` [Example 68, 3-(3-amino-6-(2-(trifluoromethoxy)phenyl)-1H-indazol-1-yl)propan-1-ol], the pIC50 in data set [1] was 6.70; in data set [2], 4.60.

`COCCn1nc(N)c2ccc(-c3ccccc3OC(F)(F)F)cc21` [Example 82, 1-(2-methoxyethyl)-6-(2-(trifluoromethoxy)phenyl)-1H-indazol-3-amine]: the pIC50 in data set [1] was 5.70.
